In ChEMBL document CHEMBL1240295, “Specificity and mechanism of action of some commonly used protein kinase inhibitors” (Biochem J, 2000):

Columns and labels:
Oryctolagus cuniculus [1] = species on record: Oryctolagus cuniculus; assay: Inhibition of MAPKAPK1b from rabbit skeletal muscle at 1 uM; type: tissue-based; settings: Muscle tissue, values are per cent of control
[2] = target: Mitogen-activated protein kinase 1 (Homo sapiens) (UniProt P28482); assay: Inhibition of His-tagged human MAPK2/ERK2 expressed in Escherichia coli at 1 uM; values are per cent of control
[3] = target: T1, Serine/threonine-protein kinase Sgk1 (Homo sapiens) (UniProt O00141); assay: Inhibition of His-tagged human SGK expressed in Sf9 cells at 1 uM; settings: values are per cent of control
T1 sequence (whole entry): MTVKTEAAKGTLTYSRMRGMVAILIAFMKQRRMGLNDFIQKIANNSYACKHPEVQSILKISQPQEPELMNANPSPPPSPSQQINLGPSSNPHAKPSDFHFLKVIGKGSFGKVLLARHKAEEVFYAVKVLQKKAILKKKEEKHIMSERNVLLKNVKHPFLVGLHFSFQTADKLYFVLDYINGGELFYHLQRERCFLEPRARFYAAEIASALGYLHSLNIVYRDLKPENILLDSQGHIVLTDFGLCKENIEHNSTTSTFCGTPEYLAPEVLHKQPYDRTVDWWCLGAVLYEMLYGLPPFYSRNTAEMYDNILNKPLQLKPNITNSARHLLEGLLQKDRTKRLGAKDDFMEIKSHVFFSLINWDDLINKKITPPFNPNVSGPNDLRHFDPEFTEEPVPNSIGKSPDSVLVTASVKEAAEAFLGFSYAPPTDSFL

[4] = target: Rho-associated protein kinase 2 (Rattus norvegicus) (UniProt Q62868); assay: Inhibition of rat ROCK2 expressed in Sf9 cells at 1 uM; settings: values are per cent of control
Rattus norvegicus = species on record: Rattus norvegicus; assay: Inhibition of rat liver AMPK at 1 uM; settings: values are per cent of control
[5] = target: T2, Mitogen-activated protein kinase 12 (Homo sapiens) (UniProt P53778); assay: Inhibition of His-tagged human SAPK3/p38gamma expressed in Escherichia coli at 1 uM; values are per cent of control
T2 sequence (whole entry): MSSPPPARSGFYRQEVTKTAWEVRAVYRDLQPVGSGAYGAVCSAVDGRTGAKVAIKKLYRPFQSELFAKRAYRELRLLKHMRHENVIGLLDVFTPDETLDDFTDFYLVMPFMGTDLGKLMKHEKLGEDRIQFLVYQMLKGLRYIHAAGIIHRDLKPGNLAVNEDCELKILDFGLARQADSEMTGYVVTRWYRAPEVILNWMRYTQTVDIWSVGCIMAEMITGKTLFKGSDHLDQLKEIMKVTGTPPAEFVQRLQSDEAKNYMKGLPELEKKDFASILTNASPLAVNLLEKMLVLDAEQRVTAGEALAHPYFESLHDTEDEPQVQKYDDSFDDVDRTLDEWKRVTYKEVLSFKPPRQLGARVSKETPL

[6] = target: T3, Serine/threonine-protein kinase Chk1 (Homo sapiens) (UniProt O14757); assay: Inhibition of His-tagged human CHK1 expressed in Escherichia coli at 1 uM; values are per cent of control
T3 sequence (whole entry): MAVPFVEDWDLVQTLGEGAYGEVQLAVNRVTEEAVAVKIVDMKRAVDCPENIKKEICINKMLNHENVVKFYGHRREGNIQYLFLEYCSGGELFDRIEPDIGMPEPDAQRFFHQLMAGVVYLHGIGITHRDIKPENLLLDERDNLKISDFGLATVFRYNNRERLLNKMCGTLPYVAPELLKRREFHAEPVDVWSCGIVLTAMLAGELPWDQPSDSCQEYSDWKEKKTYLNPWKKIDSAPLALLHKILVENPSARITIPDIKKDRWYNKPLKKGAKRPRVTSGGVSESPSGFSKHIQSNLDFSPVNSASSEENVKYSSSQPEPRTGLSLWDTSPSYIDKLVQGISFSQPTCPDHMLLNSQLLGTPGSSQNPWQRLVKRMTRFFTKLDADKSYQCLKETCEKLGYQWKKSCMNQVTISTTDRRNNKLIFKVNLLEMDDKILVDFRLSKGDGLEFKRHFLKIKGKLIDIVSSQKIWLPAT

[7] = target: 3-phosphoinositide-dependent protein kinase 1 (Homo sapiens) (UniProt O15530); assay: Inhibition of His-tagged human PDK1 expressed in Sf21 cells at 1 uM; settings: values are per cent of control
[8] = target: Mitogen-activated protein kinase 14 (Homo sapiens) (UniProt Q16539); assay: Inhibition of His-tagged human SAPK2a/p38 expressed in Escherichia coli at 1 uM; values are per cent of control
[9] = target: RAC-alpha serine/threonine-protein kinase (Homo sapiens) (UniProt P31749); assay: Inhibition of human PKBalpha expressed in SF9 cells at 1 uM; settings: values are per cent of control
Oryctolagus cuniculus [10] = species on record: Oryctolagus cuniculus; assay: Inhibition of rabbit MKK1 expressed in Escherichia coli at 1 uM; settings: values are per cent of control
Oryctolagus cuniculus [11] = species on record: Oryctolagus cuniculus; assay: Inhibition of PHK from rabbit skeletal muscle at 1 uM; type: tissue-based; settings: Muscle tissue, values are per cent of control
[12] = target: Ribosomal protein S6 kinase beta-1 (Homo sapiens, UniProt P23443); assay: Inhibition of His-tagged human S6K1 expressed in Escherichia coli at 1 uM; values are per cent of control
[13] = target: Protein kinase C alpha type (Homo sapiens, UniProt P17252); assay: Inhibition of His-tagged human PKCalpha expressed in Escherichia coli at 1 uM; settings: values are per cent of control
[14] = target: Ribosomal protein S6 kinase alpha-5 (Homo sapiens, UniProt O75582); assay: Inhibition of His-tagged human MSK1 expressed in Sf9 cells at 1 uM; values are per cent of control
[15] = target: T4, MAP kinase-activated protein kinase 5 (Homo sapiens) (UniProt Q8IW41); assay: Inhibition of His-tagged human PRAK expressed in Sf9 cells at 1 uM; values are per cent of control
T4 sequence (whole entry): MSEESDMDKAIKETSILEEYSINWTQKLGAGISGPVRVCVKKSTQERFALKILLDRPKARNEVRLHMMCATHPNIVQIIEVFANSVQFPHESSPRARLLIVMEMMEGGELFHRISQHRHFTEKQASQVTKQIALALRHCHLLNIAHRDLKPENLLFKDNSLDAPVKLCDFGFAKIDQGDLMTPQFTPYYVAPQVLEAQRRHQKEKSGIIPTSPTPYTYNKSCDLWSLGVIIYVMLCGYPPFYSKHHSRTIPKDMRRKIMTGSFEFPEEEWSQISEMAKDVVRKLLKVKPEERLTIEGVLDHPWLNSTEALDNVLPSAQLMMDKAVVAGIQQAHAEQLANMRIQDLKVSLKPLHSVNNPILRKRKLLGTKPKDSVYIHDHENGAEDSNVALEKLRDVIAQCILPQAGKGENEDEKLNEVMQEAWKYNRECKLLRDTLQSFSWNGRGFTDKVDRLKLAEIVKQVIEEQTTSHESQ

[16] = target: Casein kinase II (Homo sapiens) (UniProt P67870+P68400+P19784); assay: Inhibition of His-tagged human CK2 expressed in Sf9 cells at 1 uM; settings: values are per cent of control
Bos taurus = species on record: Bos taurus; assay: Inhibition of bovine heart PKA at 1 uM; settings: values are per cent of control

Ribosomal protein S6 kinase alpha-5, sequence (O75582 whole entry, looked up): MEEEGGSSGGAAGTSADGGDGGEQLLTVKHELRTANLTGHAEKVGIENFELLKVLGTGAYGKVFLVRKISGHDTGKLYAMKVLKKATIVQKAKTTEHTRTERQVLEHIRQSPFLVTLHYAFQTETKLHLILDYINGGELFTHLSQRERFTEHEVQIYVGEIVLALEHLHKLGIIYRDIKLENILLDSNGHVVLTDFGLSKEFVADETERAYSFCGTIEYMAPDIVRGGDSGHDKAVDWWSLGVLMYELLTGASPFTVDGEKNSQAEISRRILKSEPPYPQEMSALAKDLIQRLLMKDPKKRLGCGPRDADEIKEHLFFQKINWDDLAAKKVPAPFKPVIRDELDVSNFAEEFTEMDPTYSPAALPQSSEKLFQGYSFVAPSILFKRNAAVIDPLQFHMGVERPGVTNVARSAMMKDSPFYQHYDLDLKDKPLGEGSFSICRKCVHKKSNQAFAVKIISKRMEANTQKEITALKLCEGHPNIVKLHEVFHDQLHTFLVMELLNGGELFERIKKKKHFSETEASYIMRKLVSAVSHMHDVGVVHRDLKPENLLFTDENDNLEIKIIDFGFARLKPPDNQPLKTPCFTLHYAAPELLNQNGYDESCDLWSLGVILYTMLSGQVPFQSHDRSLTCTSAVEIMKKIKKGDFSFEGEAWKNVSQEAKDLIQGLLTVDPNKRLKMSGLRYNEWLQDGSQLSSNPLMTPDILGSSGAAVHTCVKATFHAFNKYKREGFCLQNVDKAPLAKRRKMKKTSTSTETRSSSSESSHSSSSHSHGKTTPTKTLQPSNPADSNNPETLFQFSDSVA
RAC-alpha serine/threonine-protein kinase (Homo sapiens), sequence (P31749 whole entry): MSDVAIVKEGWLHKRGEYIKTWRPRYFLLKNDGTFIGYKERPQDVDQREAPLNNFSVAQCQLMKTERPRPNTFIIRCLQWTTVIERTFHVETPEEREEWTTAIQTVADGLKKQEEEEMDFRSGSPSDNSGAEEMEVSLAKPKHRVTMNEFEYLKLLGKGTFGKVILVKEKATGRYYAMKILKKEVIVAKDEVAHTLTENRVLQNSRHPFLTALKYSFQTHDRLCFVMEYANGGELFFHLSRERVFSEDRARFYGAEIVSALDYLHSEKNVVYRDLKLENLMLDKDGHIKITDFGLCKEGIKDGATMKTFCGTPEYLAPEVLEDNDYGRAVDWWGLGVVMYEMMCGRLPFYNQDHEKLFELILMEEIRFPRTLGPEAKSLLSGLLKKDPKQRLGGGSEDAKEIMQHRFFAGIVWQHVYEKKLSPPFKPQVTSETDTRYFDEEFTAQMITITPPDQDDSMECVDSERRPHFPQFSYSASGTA
Mitogen-activated protein kinase 1 (Homo sapiens), sequence (P28482 whole entry): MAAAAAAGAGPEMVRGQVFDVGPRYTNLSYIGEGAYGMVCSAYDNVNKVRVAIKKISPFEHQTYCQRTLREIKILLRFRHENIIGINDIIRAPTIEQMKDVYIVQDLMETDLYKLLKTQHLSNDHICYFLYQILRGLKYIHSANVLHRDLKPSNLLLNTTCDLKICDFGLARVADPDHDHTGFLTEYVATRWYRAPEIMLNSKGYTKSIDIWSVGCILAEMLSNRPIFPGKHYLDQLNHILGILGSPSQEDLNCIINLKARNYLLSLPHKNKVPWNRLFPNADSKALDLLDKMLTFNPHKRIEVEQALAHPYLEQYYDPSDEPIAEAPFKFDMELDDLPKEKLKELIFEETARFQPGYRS
3-phosphoinositide-dependent protein kinase 1 (Homo sapiens), sequence (O15530 whole entry, looked up): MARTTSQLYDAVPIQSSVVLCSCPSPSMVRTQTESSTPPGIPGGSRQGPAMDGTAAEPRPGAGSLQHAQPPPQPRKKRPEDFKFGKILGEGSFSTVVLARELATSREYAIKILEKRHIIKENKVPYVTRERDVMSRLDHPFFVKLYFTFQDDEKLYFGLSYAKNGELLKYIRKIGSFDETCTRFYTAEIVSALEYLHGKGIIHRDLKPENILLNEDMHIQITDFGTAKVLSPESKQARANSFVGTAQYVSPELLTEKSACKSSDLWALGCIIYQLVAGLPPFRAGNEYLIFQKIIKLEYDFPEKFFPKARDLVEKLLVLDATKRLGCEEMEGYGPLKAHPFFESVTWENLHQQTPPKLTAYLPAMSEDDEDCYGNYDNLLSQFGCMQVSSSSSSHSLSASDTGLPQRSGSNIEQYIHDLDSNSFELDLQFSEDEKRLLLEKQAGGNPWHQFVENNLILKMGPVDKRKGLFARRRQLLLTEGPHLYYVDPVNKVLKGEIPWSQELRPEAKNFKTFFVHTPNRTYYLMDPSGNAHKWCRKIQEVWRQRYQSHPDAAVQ
Rho-associated protein kinase 2 (Rattus norvegicus), sequence (Q62868 whole entry, looked up): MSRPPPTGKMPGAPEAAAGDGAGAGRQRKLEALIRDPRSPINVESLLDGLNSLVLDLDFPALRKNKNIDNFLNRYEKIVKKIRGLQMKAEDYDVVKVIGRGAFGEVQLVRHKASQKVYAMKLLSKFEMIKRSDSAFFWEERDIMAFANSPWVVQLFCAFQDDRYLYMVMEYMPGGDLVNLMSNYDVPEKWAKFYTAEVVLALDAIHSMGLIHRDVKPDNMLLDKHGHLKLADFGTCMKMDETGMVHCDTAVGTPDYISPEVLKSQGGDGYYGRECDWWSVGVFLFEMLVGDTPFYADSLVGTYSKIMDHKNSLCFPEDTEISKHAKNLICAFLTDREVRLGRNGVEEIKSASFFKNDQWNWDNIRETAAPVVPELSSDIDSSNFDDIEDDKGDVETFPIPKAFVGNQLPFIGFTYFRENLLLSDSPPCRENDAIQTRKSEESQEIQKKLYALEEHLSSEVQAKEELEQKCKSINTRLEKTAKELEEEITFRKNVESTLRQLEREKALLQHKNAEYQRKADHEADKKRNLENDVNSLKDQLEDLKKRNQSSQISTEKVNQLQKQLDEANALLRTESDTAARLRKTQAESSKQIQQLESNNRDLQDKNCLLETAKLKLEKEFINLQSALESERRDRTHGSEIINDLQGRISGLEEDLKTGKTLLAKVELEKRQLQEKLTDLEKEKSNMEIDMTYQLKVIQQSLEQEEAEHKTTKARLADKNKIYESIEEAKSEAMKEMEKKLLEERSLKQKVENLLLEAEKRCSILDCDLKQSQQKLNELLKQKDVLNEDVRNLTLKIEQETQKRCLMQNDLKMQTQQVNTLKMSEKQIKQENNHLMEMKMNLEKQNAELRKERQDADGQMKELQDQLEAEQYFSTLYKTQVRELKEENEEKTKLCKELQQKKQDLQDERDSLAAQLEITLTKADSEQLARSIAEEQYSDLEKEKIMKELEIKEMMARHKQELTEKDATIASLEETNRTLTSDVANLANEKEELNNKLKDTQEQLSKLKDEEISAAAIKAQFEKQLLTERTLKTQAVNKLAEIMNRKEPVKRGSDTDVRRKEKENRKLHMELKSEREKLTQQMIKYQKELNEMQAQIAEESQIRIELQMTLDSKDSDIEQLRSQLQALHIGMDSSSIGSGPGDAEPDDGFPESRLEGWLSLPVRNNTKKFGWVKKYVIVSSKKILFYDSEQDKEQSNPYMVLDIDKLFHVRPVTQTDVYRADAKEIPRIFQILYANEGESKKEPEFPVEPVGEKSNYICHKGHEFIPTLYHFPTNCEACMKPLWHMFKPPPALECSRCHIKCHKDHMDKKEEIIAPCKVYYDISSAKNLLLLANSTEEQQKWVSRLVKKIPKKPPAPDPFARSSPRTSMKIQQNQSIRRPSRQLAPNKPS
Ribosomal protein S6 kinase beta-1, sequence (P23443 whole entry, looked up): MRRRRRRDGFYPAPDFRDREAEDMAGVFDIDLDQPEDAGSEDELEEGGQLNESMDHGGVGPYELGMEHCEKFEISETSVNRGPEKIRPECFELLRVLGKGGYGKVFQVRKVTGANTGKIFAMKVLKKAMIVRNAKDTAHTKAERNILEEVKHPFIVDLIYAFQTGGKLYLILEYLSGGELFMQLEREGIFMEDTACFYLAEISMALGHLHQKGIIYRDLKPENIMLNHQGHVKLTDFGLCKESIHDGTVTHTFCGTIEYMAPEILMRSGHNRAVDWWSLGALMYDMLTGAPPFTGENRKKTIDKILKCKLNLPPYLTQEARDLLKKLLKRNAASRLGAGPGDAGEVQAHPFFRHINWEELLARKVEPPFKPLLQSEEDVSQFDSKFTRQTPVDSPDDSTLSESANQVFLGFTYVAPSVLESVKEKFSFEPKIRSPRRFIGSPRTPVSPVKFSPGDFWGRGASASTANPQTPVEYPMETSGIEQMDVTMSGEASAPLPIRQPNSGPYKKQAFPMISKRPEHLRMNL
Mitogen-activated protein kinase 14 (Homo sapiens), sequence (Q16539 whole entry): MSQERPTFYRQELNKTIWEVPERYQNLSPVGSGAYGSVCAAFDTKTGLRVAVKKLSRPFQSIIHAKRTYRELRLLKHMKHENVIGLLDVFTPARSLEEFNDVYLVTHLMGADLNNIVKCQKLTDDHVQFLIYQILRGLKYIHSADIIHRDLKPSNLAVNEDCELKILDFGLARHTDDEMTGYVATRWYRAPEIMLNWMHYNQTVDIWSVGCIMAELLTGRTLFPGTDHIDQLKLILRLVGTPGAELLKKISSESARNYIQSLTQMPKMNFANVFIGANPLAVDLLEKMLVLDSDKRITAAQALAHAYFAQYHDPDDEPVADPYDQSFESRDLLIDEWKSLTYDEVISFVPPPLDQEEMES

Row | SMILES | residual activity (Oryctolagus cuniculus [1]) [%] | residual activity [2] [%] | residual activity [3] [%] | residual activity [4] [%] | residual activity (Rattus norvegicus) [%] | residual activity [5] [%] | residual activity [6] [%] | residual activity [7] [%] | residual activity [8] [%] | residual activity [9] [%] | residual activity (Oryctolagus cuniculus [10]) [%] | residual activity (Oryctolagus cuniculus [11]) [%] | residual activity [12] [%] | residual activity [13] [%] | residual activity [14] [%] | residual activity [15] [%] | residual activity [16] [%] | residual activity (Bos taurus) [%]
1 | O=C1NC(=O)C(c2c[nH]c3ccccc23)=C1c1c[nH]c2ccccc12 | 54 | 86 | 101 | 100 | 96 | 83 | 91 | 95 | 90 | 101 | 84 | 90 | 87 | 57 | 56 | 96 | 99 | 93
2 | Cn1cc(C2=C(c3c4n(c5ccccc35)CCC(CN)C4)C(=O)NC2=O)c2ccccc21 (configuration not stated) | 5 | 106 | 34 | 103 | 71 | 116 | 50 | 122 | 117 | 104 | 94 | 60 | 12 | 1 | 5 | 101 | 104 | 90
3 | Cn1cc(C2=C(c3cn(CCCN)c4ccccc34)C(=O)NC2=O)c2ccccc21 | 4 | 105 | 28 | 106 | 60 | 107 | 71 | 107 | 115 | 98 | 99 | 58 | 29 | 14 | 13 | 102 | 103 | 94
4 | CO[C@H]1C[C@@H]2CC[C@@H](C)[C@@](O)(O2)C(=O)C(=O)N2CCCC[C@H]2C(=O)O[C@H]([C@H](C)C[C@@H]2CC[C@@H](O)[C@H](OC)C2)CC(=O)[C@H](C)/C=C(\C)[C@@H](O)[C@@H](OC)C(=O)[C@H](C)C[C@H](C)/C=C/C=C/C=C/1C | 95 | 90 | 108 | 92 | 106 | 100 | 102 | 110 | 93 | 91 | 99 | 103 | 109 | 99 | 104 | 74 | 104 | 104
